# The source made the active and inactive calls.
# What was measured:
# [1] = target: T1, GABA-A receptor; alpha-1/beta-3/gamma-2 (Homo sapiens, UniProt P14867+P18507+P28472); assay: Positive allosteric modulation of GABA-A alpha1beta3gamma2S receptor (unknown origin) expressed in Xenopus laevis oocytes assessed as increase in GABA-induced chloride current after 15 mins at -70 mV holding potential by two-microelectrode voltage clamp method; assay type: cell-based
# T1 sequence (P14867 whole entry): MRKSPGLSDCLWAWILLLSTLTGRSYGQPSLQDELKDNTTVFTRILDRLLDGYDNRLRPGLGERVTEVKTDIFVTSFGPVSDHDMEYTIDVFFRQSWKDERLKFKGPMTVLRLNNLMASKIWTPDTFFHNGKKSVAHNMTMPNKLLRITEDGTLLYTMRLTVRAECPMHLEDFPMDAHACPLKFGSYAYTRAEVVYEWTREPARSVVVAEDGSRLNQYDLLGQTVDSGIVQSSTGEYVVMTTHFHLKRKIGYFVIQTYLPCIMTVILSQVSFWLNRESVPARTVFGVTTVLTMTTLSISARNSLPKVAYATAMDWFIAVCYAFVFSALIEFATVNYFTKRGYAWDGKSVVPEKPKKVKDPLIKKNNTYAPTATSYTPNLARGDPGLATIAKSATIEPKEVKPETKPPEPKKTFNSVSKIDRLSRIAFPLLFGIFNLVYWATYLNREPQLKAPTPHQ
# T1 sequence (P18507 whole entry): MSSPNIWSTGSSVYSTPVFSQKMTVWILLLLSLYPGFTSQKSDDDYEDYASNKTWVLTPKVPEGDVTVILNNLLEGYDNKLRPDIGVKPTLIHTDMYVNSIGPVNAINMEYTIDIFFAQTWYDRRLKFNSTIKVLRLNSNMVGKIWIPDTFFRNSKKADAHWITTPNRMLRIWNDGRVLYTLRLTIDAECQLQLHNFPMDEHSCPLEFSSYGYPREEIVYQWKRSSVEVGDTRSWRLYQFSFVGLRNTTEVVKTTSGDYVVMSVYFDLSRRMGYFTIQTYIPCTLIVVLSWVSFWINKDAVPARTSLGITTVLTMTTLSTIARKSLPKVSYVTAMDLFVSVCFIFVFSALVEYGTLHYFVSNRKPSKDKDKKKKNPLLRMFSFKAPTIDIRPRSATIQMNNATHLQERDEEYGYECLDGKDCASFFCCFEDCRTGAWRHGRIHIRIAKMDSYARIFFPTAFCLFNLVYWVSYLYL
# T1 sequence (P28472 whole entry): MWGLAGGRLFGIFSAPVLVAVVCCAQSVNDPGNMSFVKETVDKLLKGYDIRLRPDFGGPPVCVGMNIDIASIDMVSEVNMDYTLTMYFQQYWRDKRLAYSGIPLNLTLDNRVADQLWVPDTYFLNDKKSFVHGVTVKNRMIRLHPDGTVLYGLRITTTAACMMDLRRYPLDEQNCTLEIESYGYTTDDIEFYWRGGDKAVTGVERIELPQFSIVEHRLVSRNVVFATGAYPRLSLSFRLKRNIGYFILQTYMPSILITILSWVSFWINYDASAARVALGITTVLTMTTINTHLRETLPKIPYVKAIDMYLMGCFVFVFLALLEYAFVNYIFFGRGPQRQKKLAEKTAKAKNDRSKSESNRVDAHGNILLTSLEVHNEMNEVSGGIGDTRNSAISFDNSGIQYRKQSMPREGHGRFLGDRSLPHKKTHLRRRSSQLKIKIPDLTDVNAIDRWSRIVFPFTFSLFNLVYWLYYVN
# [2] = target: T2, GABA A receptor alpha-1/beta-1/gamma-2 (Homo sapiens, UniProt P14867+P18505+P18507); assay: Positive allosteric modulation of GABA-A alpha1beta1gamma2S receptor (unknown origin) expressed in Xenopus laevis oocytes assessed as increase in GABA-induced chloride current after 15 mins at -70 mV holding potential by two-microelectrode voltage clamp method; assay type: cell-based
# T2 sequence (P14867 whole entry): T1 sequence (P14867 whole entry)
# T2 sequence (P18507 whole entry): T1 sequence (P18507 whole entry)
# T2 sequence (P18505 whole entry): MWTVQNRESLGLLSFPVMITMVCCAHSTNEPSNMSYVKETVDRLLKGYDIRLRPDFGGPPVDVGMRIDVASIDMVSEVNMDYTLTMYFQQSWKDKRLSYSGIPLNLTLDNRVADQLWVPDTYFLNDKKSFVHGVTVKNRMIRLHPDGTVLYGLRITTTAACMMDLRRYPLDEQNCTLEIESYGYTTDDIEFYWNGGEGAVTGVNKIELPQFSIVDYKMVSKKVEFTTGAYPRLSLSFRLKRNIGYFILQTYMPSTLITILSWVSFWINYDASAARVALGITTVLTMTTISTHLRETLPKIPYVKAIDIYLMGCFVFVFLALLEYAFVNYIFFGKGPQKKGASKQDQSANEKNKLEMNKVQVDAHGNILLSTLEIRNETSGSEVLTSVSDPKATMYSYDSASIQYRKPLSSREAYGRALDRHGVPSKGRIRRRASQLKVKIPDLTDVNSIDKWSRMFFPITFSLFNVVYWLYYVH
# [3] = target: T2, GABA A receptor alpha-1/beta-1/gamma-2; assay: Positive allosteric modulation of GABA-A alpha1beta1gamma2S receptor (unknown origin) expressed in Xenopus laevis oocytes assessed as increase in GABA-induced chloride current at 300 uM after 15 mins at -70 mV holding potential by two-microelectrode voltage clamp method relative to control; assay type: cell-based; conditions: 0.25 h
# [4] = target: T3, GABA-A receptor; alpha-1/beta-2/gamma-2 (Homo sapiens, UniProt P14867+P18507+P47870); assay: Positive allosteric modulation of GABA-A alpha1beta2gamma2S receptor (unknown origin) expressed in Xenopus laevis oocytes assessed as increase in GABA-induced chloride current after 15 mins at -70 mV holding potential by two-microelectrode voltage clamp method; assay type: cell-based
# T3 sequence (P14867 whole entry): T1 sequence (P14867 whole entry)
# T3 sequence (P47870 whole entry): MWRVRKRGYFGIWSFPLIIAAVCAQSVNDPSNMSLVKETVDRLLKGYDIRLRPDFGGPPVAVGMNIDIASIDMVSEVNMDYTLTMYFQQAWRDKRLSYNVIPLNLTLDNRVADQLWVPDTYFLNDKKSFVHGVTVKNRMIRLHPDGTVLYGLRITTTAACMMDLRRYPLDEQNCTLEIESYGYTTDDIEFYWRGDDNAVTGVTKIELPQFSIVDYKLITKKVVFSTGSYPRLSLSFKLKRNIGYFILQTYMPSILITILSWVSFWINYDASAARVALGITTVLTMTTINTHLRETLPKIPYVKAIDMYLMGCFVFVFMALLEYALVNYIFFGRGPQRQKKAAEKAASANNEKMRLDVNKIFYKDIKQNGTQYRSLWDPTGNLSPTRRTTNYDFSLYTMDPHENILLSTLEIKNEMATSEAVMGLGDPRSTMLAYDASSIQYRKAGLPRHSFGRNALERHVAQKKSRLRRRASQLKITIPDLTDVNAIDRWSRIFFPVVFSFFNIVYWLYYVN
# T3 sequence (P18507 whole entry): T1 sequence (P18507 whole entry)
# [5] = target: GABA-A receptor; alpha-1/beta-3/gamma-2 (Homo sapiens, UniProt P14867+P18507+P28472, N265S); assay: Positive allosteric modulation of GABA-A alpha1beta3(N265S)gamma2S mutant receptor (unknown origin) expressed in Xenopus laevis oocytes assessed as increase in GABA-induced chloride current after 15 mins at -70 mV holding potential by two-microelectrode voltage clamp method; assay type: cell-based
# [6] = target: GABA A receptor alpha-1/beta-1/gamma-2 (Homo sapiens, UniProt P14867+P18505+P18507, S290N); assay: Positive allosteric modulation of GABA-A alpha1beta1(S290N)gamma2S mutant receptor (unknown origin) expressed in Xenopus laevis oocytes assessed as increase in GABA-induced chloride current after 15 mins at -70 mV holding potential by two-microelectrode voltage clamp method; assay type: cell-based
# [7] = target: GABA-A receptor; alpha-1/beta-3/gamma-2 (Homo sapiens, UniProt P14867+P18507+P28472, F289S); assay: Positive allosteric modulation of GABA-A alpha1beta3(F289S)gamma2S mutant receptor (unknown origin) expressed in Xenopus laevis oocytes assessed as increase in GABA-induced chloride current after 15 mins at -70 mV holding potential by two-microelectrode voltage clamp method; assay type: cell-based
# Oocyte = assay: Induction of current in Xenopus laevis oocytes at 10 to 100 uM after 5 mins by two-microelectrode voltage clamp method; assay type: cell-based
# [8] = target: T4, GABA-A receptor; anion channel (Rattus norvegicus) (UniProt O09028+P15431+P18506+P18508+P19969+P20236+P23574+P23576+P28471+P28473+P30191+P62813+P63079+P63138+Q91ZM7+Q9ES14); assay: Positive allosteric modulation of GABA-A receptor in Sprague-Dawley rat primary hippocampal neurons assessed as miniature inhibitory postsynaptic current mean frequency at 10 uM for 300 secs at -70 mV holding potential by patch-clamp method; assay type: protein-complex assay; parameters: scale not given: the % may be the effect or the level left
# [9] = target: T4, GABA-A receptor; anion channel (Rattus norvegicus); assay: Positive allosteric modulation of GABA-A receptor in Sprague-Dawley rat primary hippocampal neurons assessed as miniature inhibitory postsynaptic current amplitude at 10 uM for 300 secs at -70 mV holding potential by patch-clamp method; assay type: protein-complex assay; parameters: scale not given: the % may be the effect or the level left
# [10] = target: T4, GABA-A receptor; anion channel (Rattus norvegicus); assay: Positive allosteric modulation of GABA-A receptor in Sprague-Dawley rat primary hippocampal neurons assessed as prolongation of miniature inhibitory postsynaptic current decay time at 10 uM for 300 secs at -70 mV holding potential by patch-clamp method; assay type: protein-complex assay; parameters: scale not given: the % may be the effect or the level left
# [11] = target: T4, GABA-A receptor; anion channel (Rattus norvegicus); assay: Positive allosteric modulation of GABA-A receptor in Sprague-Dawley rat primary hippocampal neurons assessed as increase in channel-mediated tonic current at 10 uM for 300 secs at -70 mV holding potential by patch-clamp method; assay type: protein-complex assay
# [12] = target: T4, GABA-A receptor; anion channel (Rattus norvegicus); assay: Positive allosteric modulation of GABA-A receptor in Sprague-Dawley rat primary hippocampal neurons assessed as channel-mediated tonic current at 10 uM pretreated for 300 secs followed by BMI addition for 10 secs at -70 mV holding potential by patch-clamp method; assay type: protein-complex assay
# Mus musculus [13] = assay: Anticonvulsive activity in C57BL/6N mouse assessed as protection against 39.5 +/- 0.8 mg/kg pentylenetetrazole-induced seizures by measuring elevation in seizure threshold at 0.1 to 0.3 mg/kg, ip pretreated for 30 mins followed by pentylenetetrazole tail-vein infusion; assay type: functional, organism-based
# Mus musculus [14] = assay: Anticonvulsive activity in C57BL/6N mouse assessed as protection against 52.6 +/- 2.1 mg/kg pentylenetetrazole-induced seizures by measuring elevation in seizure threshold at 0.3 mg/kg, ip pretreated for 30 mins followed by pentylenetetrazole tail-vein infusion; assay type: functional, organism-based
# [15] = target: Glutamate [NMDA] receptor (Homo sapiens) (UniProt Q05586+Q12879+Q13224+O15399+O60391+Q14957+Q8TCU5); assay: Positive allosteric modulation of NMDA receptor (unknown origin) expressed in Xenopus laevis oocytes assessed as increase in NMDA-induced channel current at 10 to 100 uM at -70 mV holding potential by two-microelectrode voltage clamp method; assay type: cell-based
# [16] = target: Transient receptor potential cation channel subfamily V member 1 (Homo sapiens) (UniProt Q8NER1); assay: Agonist activity at TRPV1 receptor (unknown origin) expressed in Xenopus laevis oocytes assessed as increase in channel current at 10 to 100 uM at -70 mV holding potential by two-microelectrode voltage clamp method; assay type: cell-based
# [17] = target: T5, Neuronal acetylcholine receptor; alpha4/beta2 (Homo sapiens) (UniProt P17787+P43681); assay: Positive allosteric modulation of alpha4beta2 nAChR (unknown origin) expressed in Xenopus laevis oocytes assessed as increase in acetylcholine-induced channel current at 10 to 100 uM at -70 mV holding potential by two-microelectrode voltage clamp method; assay type: cell-based
# [18] = target: Metabotropic glutamate receptor 2 (Homo sapiens) (UniProt Q14416); assay: Positive allosteric modulation of mGluR2 (unknown origin) expressed in Xenopus laevis oocytes assessed as increase in glutamate-induced channel current at 10 to 100 uM at -70 mV holding potential by two-microelectrode voltage clamp method; assay type: cell-based
# [19] = target: T5, Neuronal acetylcholine receptor; alpha4/beta2 (Homo sapiens); assay: Negative allosteric modulation of alpha4beta2 nAChR (unknown origin) expressed in Xenopus laevis oocytes assessed as decrease in acetylcholine-induced channel current at 100 uM at -70 mV holding potential by two-microelectrode voltage clamp method relative to control; assay type: cell-based
# [20] = target: T4, GABA-A receptor; anion channel (Rattus norvegicus); assay: Positive allosteric modulation of GABA-A receptor in Sprague-Dawley rat primary hippocampal neurons assessed as channel-mediated tonic current at 30 uM pretreated for 300 secs followed by BMI addition for 10 secs at -70 mV holding potential by patch-clamp method (reference value: -63 pA); assay type: protein-complex assay
# Mus musculus [21] = assay: Anticonvulsive activity in C57BL/6N mouse assessed as protection against 49 +/- 1.8 mg/kg pentylenetetrazole-induced seizures by measuring elevation in seizure threshold at 10 mg/kg, ip pretreated for 30 mins followed by pentylenetetrazole tail-vein infusion; assay type: functional, organism-based
# Chain of Metabotropic glutamate receptor 2 (Homo sapiens) (Q14416 19-872 limits assumed): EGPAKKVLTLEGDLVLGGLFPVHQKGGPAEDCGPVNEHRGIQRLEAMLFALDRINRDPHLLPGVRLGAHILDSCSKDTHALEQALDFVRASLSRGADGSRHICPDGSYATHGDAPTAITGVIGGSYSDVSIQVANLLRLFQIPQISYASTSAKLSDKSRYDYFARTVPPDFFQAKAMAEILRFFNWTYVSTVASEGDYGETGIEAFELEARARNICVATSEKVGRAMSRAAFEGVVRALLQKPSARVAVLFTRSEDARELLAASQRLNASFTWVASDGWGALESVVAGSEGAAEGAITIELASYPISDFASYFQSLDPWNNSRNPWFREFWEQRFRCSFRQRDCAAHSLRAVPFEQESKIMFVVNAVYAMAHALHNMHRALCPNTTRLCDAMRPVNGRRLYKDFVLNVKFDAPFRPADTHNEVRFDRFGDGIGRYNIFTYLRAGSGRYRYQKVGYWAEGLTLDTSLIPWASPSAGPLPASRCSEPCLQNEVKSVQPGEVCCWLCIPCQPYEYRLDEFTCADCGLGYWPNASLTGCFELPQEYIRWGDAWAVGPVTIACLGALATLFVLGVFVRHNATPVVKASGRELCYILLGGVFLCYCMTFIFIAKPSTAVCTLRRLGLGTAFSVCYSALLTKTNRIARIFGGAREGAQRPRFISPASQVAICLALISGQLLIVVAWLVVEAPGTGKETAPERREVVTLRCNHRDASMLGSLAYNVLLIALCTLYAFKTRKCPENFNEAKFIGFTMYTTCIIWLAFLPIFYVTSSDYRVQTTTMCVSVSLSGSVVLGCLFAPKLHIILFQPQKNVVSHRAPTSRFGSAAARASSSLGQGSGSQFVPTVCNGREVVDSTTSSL
# Chain of Transient receptor potential cation channel subfamily V member 1 (Homo sapiens) (Q8NER1 whole entry): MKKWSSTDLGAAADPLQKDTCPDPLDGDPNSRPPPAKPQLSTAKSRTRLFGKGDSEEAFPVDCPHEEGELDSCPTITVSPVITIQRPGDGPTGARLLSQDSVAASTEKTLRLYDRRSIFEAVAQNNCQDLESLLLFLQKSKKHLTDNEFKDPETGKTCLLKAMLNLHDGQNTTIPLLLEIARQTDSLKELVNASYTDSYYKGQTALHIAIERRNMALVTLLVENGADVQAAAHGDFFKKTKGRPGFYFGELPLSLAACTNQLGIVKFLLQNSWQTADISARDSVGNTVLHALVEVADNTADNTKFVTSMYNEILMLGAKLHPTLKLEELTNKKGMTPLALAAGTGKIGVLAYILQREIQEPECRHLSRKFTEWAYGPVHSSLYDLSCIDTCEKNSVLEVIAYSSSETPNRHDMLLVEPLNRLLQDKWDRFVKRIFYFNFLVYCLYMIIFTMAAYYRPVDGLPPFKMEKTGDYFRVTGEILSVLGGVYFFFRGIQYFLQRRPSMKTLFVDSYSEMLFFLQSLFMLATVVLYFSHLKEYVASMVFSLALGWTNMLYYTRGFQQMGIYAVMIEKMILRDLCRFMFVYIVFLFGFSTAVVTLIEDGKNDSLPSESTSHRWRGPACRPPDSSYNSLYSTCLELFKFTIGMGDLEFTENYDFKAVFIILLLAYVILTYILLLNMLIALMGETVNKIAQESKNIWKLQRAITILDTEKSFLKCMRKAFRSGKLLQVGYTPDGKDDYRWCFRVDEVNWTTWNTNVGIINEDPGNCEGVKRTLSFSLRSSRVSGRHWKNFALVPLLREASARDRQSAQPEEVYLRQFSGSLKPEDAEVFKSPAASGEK
smiles,measurement,setting,value
C/C(=C/C#N)c1ccc(Cl)cc1Cl,EC50,[1],13 µM
same,EC50,[2],148 µM
same,Emax at 300 µM,[3],883%
same,EC50,[4],15 µM
same,EC50,[5],103 µM
same,EC50,[6],10 µM
same,EC50,[7],171 µM
same,Activity,Oocyte,Non-Toxic
same,Activity,[8],78%
same,Activity,[9],97%
same,Activity,[10],213%
same,Activity,[11],Active
same,Activity,[12],-38 pA
same,Activity,Mus musculus [13],Active
same,Activity,Mus musculus [14],Active
same,Activity,[15],inactive
same,Activity,[16],inactive
same,Activity,[17],inactive
same,Activity,[18],inactive
same,inhibition,[19],70%
CC(=CC#N)c1ccc(C)cc1Cl (mixture of isomers),EC50,[1],41 µM
same,EC50,[2],271 µM
same,EC50,[4],41 µM
C/C(=C(\C#N)C(N)=O)c1ccc(Cl)cc1Cl,EC50,[1],44 µM
same,EC50,[4],40 µM
C/C(C#N)=C\c1ccc(Cl)cc1Cl,EC50,[1],91 µM
CC1=C2[C@H](/C=C(\C)C(=O)O)CC[C@@H](C)[C@H]2CC1 [VALERENIC ACID],EC50,[1],19 µM
same,Activity,[20],-115 pA
same,Activity,Mus musculus [21],Active
